The values below come from patent publication US20060234292A1, “Methods of diagnosing and treating diabetes and insulin resistance” (priority 2002, published 2006).

What all share (format): in vivo, human
Test [1] relates to Protein C inhibitor (PCI) transcripts. Nature of the test: Gene expression profiling (Affymetrix chips) of muscle from diabetics before/after 3 months troglitazone: PCI. As to conditions: basal muscle sample. From the text:
The molecular mechanism by which thiazolidinediones (TZDs) cause an increase in peripheral insulin sensitivity was studied. Genes in muscle or fat whose expression is altered by TZDs may lie on a pathway leading from TZD treatment to increased insulin sensitivity. Modulators of such genes can elicit the same effect as TZD treatment. Moreover, such modulators can lack some of the side effects of TZD. The majority of glucose disposal occurs in muscle. For this reason, gene expression profiling in human muscle from diabetics treated with troglitazone was used to identify genes important for TZD action and therefore treatment of diabetes and insulin resistance. Gene expression profiling was performed on tissue samples (muscle) obtained from lean obese and diabetic individuals. […] Gene expression profile differences were calculated as follows. […] The raw data was analyzed by a statistical test to remove ‘outliers’. The mean ‘average difference score’ was then calculated from the average difference scores for all individuals in a particular treatment group. Genes were determined to be changed in three different comparisons by calculating the Students t test statistic between two conditions and selecting those with t less than or equal to 0.05. Fold change was determined as the ratio of mean average difference score in condition 2 to the mean average difference score in condition 1. […]

In test [2] the test system is Protein C inhibitor (PCI) expression. Nature of the test: Real time PCR of PCI expression in muscle, pre- vs post-troglitazone-treated patients. As to conditions: mean diabetic post-Tro/mean diabetic pre-Tro expression. Here is the method: The gene expression changes observed in the human muscle samples derived from the various comparison populations analyzed in the profiling analysis described above were further confirmed by the use of real-time quantitative PCR. A combination of specific PCR primers and a Taqman probe were designed to detect and quantify expression levels for each gene. Relative gene expression levels were determined in this manner in each patient and the mean expression levels in the comparison populations were then calculated. PCI expression was also evaluated by real time PCR in lean vs. obese individuals and in pre-troglitazone-treated vs post-troglitazone-treated patients.
(In general: Quantitative PCR measures a nucleic acid by following its amplification.)

Test [3] has as its system MAST205/MAST205b transcripts. Nature of the test: Gene expression profiling (Affymetrix chips) of muscle from diabetics before/after 3 months troglitazone: MAST205/MAST205b. The settings on record: basal muscle sample. Here is the method: Gene expression profiling was performed on tissue samples (muscle) obtained from lean obese and diabetic individuals. Two studies were performed. In the first study, basal samples were isolated from all individuals at the beginning of a 5 hour hyperinsulinemic euglycemic clamp. Clamp samples were isolated at the end of this procedure. Similar basal and clamp samples were taken 3 months later after all patients had taken the insulin sensitizing drug troglitazone (tro). Gene expression profile differences were calculated as follows. The expression level of a particular gene is indicated by its ‘average difference score’. The raw data was analyzed by a statistical test to remove ‘outliers’. The mean ‘average difference score’ was then calculated from the average difference scores for all individuals in a particular treatment group. Genes were determined to be changed in three different comparisons by calculating the Students t test statistic between two conditions and selecting those with t less than or equal to 0.05. Fold change was determined as the ratio of mean average difference score in condition 2 to the mean average difference score in condition 1. The first comparison is basal leans (condition 1) versus basal obese (condition 2). The second comparison is basal leans (condition 1) versus basal diabetics (condition). […]

In test [4] the test system is MAST205b expression. Nature of the test: Real-time PCR (Taqman) specific for MAST205b in muscle before/after 3 months troglitazone. Here is the method:
(§1) The gene expression changes observed in the human muscle samples derived from the various comparison populations analyzed in the profiling analysis described above were further confirmed by the use of real-time quantitative PCR. A combination of specific PCR primers and a Taqman probe were designed to detect and quantify expression levels for each gene. Relative gene expression levels were determined in this manner in each patient and the mean expression levels in the comparison populations were then calculated. […] PCR primers and Taqman Probe were designed to detect specifically the expression of MAST205b. The sequences of the primers was as follows: […]

For test [5], the system named is MAST205 expression. Nature of the test: Real-time PCR (Taqman) specific for MAST205 in muscle before/after 3 months troglitazone. On the procedure:
as §1, with “MAST205.” for “MAST205b.”

[6] abbreviates: 3 months troglitazone, gene profiling.
Setting [7] is: muscle, lean individuals after 3 months troglitazone, relative to Lean Pre-Trog = 100%.
The mark [8] stands for this setting: ratio of relative expression Diabetic Post-Trog to Diabetic Pre-Trog.

SMILES strings stand for the structures.

For the compound `Cc1c(C)c2c(c(C)c1O)CCC(C)(COc1ccc(CC3SC(=O)NC3=O)cc1)O2` (centres unmarked) [troglitazone], the “Fold Change (diabetic post tro/diabetic pre tro), Protein C inhibitor” value in test [1] (setting [6]) came to 0.51. Further, the “Mean Expr, Diabetic Post-Trog (Protein C inhibitor)” value in test [1] (diabetics after 3 months of Troglitazone treatment, pre-Trog mean 1422) is listed as 722. Also, the “Expression Fold change, Diabetics + Tro/Diabetics − Tro (PCI)” value in test [2] came out at 0.33. Further, the “Fold Change, Diabetic Post-Trog vs Pre-Trog (MAST205)” value in test [3] (setting [6]) stood at 0.74. For the same compound, the “Mean Expr, Diabetic Post-Trog (MAST205)” value in test [3] (diabetics after 3 months troglitazone, pre-Trog mean 1234) was found to be 919. Also, in test [4] (muscle, diabetics after 3 months troglitazone, relative to Lean Pre-Trog = 100%, Diabetic Pre-Trog 197), the “Relative Exp (%), Diabetic Post-Tro (MAST205b)” value came to 111%. Moreover, in test [4] (setting [7]), the “Relative Exp (%), Lean Post-Trog (MAST205b)” value is on record as 88%. In addition, the “Fold Change (D+/D−) (MAST205b)” value in test [4] (setting [8]) turned out to be 0.56. In test [5] (muscle, diabetics after 3 months troglitazone, relative to Lean Pre-Trog = 100%, Diabetic Pre-Trog 242), the “Relative Exp (%), Diabetic Post-Tro (MAST205)” value is reported as 66%. Besides, in test [5] (setting [7]), the “Relative Exp (%), Lean Post-Trog (MAST205)” value worked out at 98%. Besides, the “Fold Change (D+/D−) (MAST205)” value in test [5] (setting [8]) is 0.27.
